Data published in ChEMBL document CHEMBL4622870, “Design, synthesis and evaluation of hydrazine and acyl hydrazone derivatives of 5-pyrrolidin-2-one as antifungal agents” (Bioorg Med Chem Lett, 2020).

Assays:
[1] = tested on: Fusarium solani; assay: Antifungal activity against Fusarium solani assessed as fungal growth inhibition by micro-dilution method; type: functional
[2] = tested on: Alternaria alternata; assay: Antifungal activity against Alternaria alternata assessed as fungal growth inhibition at 100 ug/ml by micro-dilution method relative to control; type: functional; conditions: read-out: GI
[3] = tested on: Aspergillus oryzae; assay: Antifungal activity against Aspergillus oryzae assessed as fungal growth inhibition at 100 ug/ml by micro-dilution method relative to control; type: functional; conditions: read-out: GI
[4] = tested on: Pichia kudriavzevii; assay: Antifungal activity against Candida krusei assessed as fungal growth inhibition at 100 ug/ml by micro-dilution method relative to control; type: functional; conditions: read-out: GI
[5] = tested on: Cladosporium cladosporioides; assay: Antifungal activity against Cladosporium cladosporioides assessed as fungal growth inhibition at 100 ug/ml by micro-dilution method relative to control; type: functional; conditions: read-out: GI
[6] = tested on: Sclerotinia sclerotiorum; assay: Antifungal activity against Sclerotinia sclerotiorum assessed as fungal growth inhibition at 100 ug/ml by micro-dilution method relative to control; type: functional; conditions: read-out: GI
[7] = tested on: Botrytis cinerea; assay: Antifungal activity against Botrytis cinerea assessed as fungal growth inhibition at 100 ug/ml by micro-dilution method relative to control; type: functional; conditions: read-out: GI
[8] = tested on: Kluyveromyces marxianus; assay: Antifungal activity against Candida pseudotropicalis assessed as fungal growth inhibition at 100 ug/ml by micro-dilution method relative to control; type: functional; conditions: read-out: GI
[9] = tested on: Fusarium solani; assay: Antifungal activity against Fusarium solani assessed as fungal growth inhibition at 100 ug/ml by micro-dilution method relative to control; type: functional; conditions: read-out: GI
[10] = tested on: Penicillium ochrochloron; assay: Antifungal activity against Penicillium ochrochloron assessed as fungal growth inhibition at 100 ug/ml by micro-dilution method relative to control; type: functional; conditions: read-out: GI
[11] = tested on: Candida tropicalis; assay: Antifungal activity against Candida tropicalis assessed as fungal growth inhibition at 100 ug/ml by micro-dilution method relative to control; type: functional; conditions: read-out: GI
[12] = tested on: Geotrichum candidum; assay: Antifungal activity against Geotrichum candidum assessed as fungal growth inhibition at 100 ug/ml by micro-dilution method relative to control; type: functional; conditions: read-out: GI
[13] = tested on: Geotrichum candidum; assay: Antifungal activity against Geotrichum candidum assessed as fungal growth inhibition at 50 ug/ml by micro-dilution method relative to control; type: functional; conditions: read-out: GI
[14] = tested on: Geotrichum candidum; assay: Antifungal activity against Geotrichum candidum assessed as fungal growth inhibition by micro-dilution method; type: functional
[15] = tested on: HEK293; assay: Cytotoxicity against human HEK293 cells assessed as effect on cell viability measured after 72 hrs by MTS assay; type: cell-based; conditions: hek293, 72 h
[16] = tested on: Paecilomyces variotii; assay: Antifungal activity against Paecilomyces variotii assessed as fungal growth inhibition at 100 ug/ml by micro-dilution method relative to control; type: functional; conditions: read-out: GI
[17] = tested on: Penicillium ochrochloron; assay: Antifungal activity against Penicillium ochrochloron assessed as fungal growth inhibition by micro-dilution method; type: functional
[18] = tested on: Cladosporium cladosporioides; assay: Antifungal activity against Cladosporium cladosporioides assessed as fungal growth inhibition by micro-dilution method; type: functional
[19] = tested on: Candida tropicalis; assay: Antifungal activity against Candida tropicalis assessed as fungal growth inhibition by micro-dilution method; type: functional
[20] = tested on: Paecilomyces variotii; assay: Antifungal activity against Paecilomyces variotii assessed as fungal growth inhibition by micro-dilution method; type: functional
[21] = tested on: Sclerotinia sclerotiorum; assay: Antifungal activity against Sclerotinia sclerotiorum assessed as fungal growth inhibition by micro-dilution method; type: functional
[22] = tested on: Alternaria alternata; assay: Antifungal activity against Alternaria alternata assessed as fungal growth inhibition by micro-dilution method; type: functional
[23] = tested on: Aspergillus oryzae; assay: Antifungal activity against Aspergillus oryzae assessed as fungal growth inhibition by micro-dilution method; type: functional
[24] = tested on: Kluyveromyces marxianus; assay: Antifungal activity against Candida pseudotropicalis assessed as fungal growth inhibition by micro-dilution method; type: functional

| SMILES | MIC50 [1] | MIC50 [14] | MIC50 [17] | inhibition of growth at 100 µg/mL [2] | inhibition of growth at 100 µg/mL [3] | inhibition of growth at 100 µg/mL [4] | inhibition of growth at 100 µg/mL [5] | inhibition of growth at 100 µg/mL [6] | inhibition of growth at 100 µg/mL [7] | inhibition of growth at 100 µg/mL [8] | inhibition of growth at 100 µg/mL [9] | inhibition of growth at 100 µg/mL [10] | inhibition of growth at 100 µg/mL [11] | inhibition of growth at 100 µg/mL [12] | Activity [15] | inhibition of growth at 100 µg/mL [16] | further results |
| --- | --- | --- | --- | --- | --- | --- | --- | --- | --- | --- | --- | --- | --- | --- | --- | --- | --- |
| O=C1CC[C@@H](C(=O)N/N=C/c2ccc(CO)o2)N1 | > 75 µg/mL | > 75 µg/mL |  | 42% | 0% | 66% | 0% | 0% | 0% | 28% | 72% | 28% | 38% | 88% | Non-Toxic | 45% | inhibition of growth at 50 µg/mL [13]: < 10% |
| O=C1CC[C@@H](C(=O)N/N=C/c2ccccc2[N+](=O)[O-])N1 | 51.6 µg/mL |  |  | 0% | 32% | 0% | 0% | 21% | 27% | 35% | 100% | 13% | 19% | 50% | Non-Toxic | 3% |  |
| O=C1CC[C@@H](C(=O)N/N=C/c2ccc(Br)cc2)N1 | 6.5 µg/mL | 5.9 µg/mL | 5.3 µg/mL | 0% | 43% | 0% | 72% | 37% | 40% | 2% | 100% | 77% | 92% | 100% | Non-Toxic | 0% | MIC50 [19]: > 75 µg/mL; MIC50 [18]: 53 µg/mL |
| O=C1CC[C@@H](C(=O)N/N=C/c2ccc([N+](=O)[O-])cc2)N1 | 59.1 µg/mL |  |  | 30% | 0% | 22% | 40% | 9% | 0% | 38% | 100% | 14% | 42% | 30% | Non-Toxic | 20% |  |
| Cc1ccc(/C=N/NC(=O)[C@@H]2CCC(=O)N2)cc1 | 102 µg/mL |  |  | 0% | 11% | 28% | 5% | 0% | 0% | 32% | 94% | 0% | 33% | 28% | Non-Toxic | 35% |  |
| CN(NC1CCC(=O)N1)c1ccccc1 (racemic) | 31 µg/mL |  |  | 0% | 45% | 20% | 42% | 46% | 20% | 61% | 100% | 56% | 20% | 18% | Non-Toxic | 70% | MIC50 [20]: 14.8 µg/mL |
| O=C1CCC(NNc2ccccc2)N1 (racemic) | 18.5 µg/mL |  | 4.4 µg/mL | 82% | 71% | 35% | 44% | 76% | 62% | 96% | 100% | 90% | 89% | 0% | Non-Toxic | 78% | MIC50 [21]: 23 µg/mL; MIC50 [19]: 58.5 µg/mL; MIC50 [22]: 3.6 µg/mL; MIC50 [20]: 7.8 µg/mL; MIC50 [23]: 43.4 µg/mL; MIC50 [24]: 0.6 µg/mL |
| O=C1CCC(NNc2cc(F)ccc2F)N1 (racemic) | 24.5 µg/mL |  | 21.1 µg/mL | 72% | 0% | 20% | 29% | 28% | 0% | 65% | 95% | 73% | 62% | 25% | Non-Toxic | 17% | MIC50 [22]: 18.6 µg/mL |
| Cc1cc(O)no1 [HYMEXAZOL] | 15.6 µg/mL | > 50 µg/mL | 62.2 µg/mL |  |  |  |  |  |  |  |  |  |  |  |  |  | MIC50 [21]: 26.5 µg/mL; MIC50 [22]: 38.3 µg/mL; MIC50 [20]: 57.2 µg/mL; MIC50 [23]: 45.7 µg/mL; MIC50 [18]: 28.9 µg/mL |
| CC(=O)N1CCN(c2ccc(OCC3COC(Cn4ccnc4)(c4ccc(Cl)cc4Cl)O3)cc2)CC1 (stereo not given) [KETOCONAZOLE] |  | 1.5 µg/mL |  |  |  |  |  |  |  |  |  |  |  |  |  |  | MIC50 [19]: 15.9 µg/mL; MIC50 [24]: 9.6 µg/mL |

Further lines, with some results ahead:

| MIC50 [1] | MIC50 [14] | MIC50 [17] | SMILES | inhibition of growth at 100 µg/mL [2] | inhibition of growth at 100 µg/mL [3] | inhibition of growth at 100 µg/mL [4] | inhibition of growth at 100 µg/mL [5] | inhibition of growth at 100 µg/mL [6] | inhibition of growth at 100 µg/mL [7] | inhibition of growth at 100 µg/mL [8] | inhibition of growth at 100 µg/mL [9] | inhibition of growth at 100 µg/mL [10] | inhibition of growth at 100 µg/mL [11] | inhibition of growth at 100 µg/mL [12] | Activity [15] | inhibition of growth at 100 µg/mL [16] | further results |
| --- | --- | --- | --- | --- | --- | --- | --- | --- | --- | --- | --- | --- | --- | --- | --- | --- | --- |
|  | 1.8 µg/mL | 15.4 µg/mL | O=C1CC[C@@H](C(=O)N/N=C/c2ccc(Cl)cc2)N1 | 20% | 0% | 26% | 98% | 58% | 34% | 50% | 61% | 92% | 47% | 92% | Non-Toxic | 27% | MIC50 [18]: 23.9 µg/mL |
|  | 38.4 µg/mL |  | O=C1CC[C@@H](C(=O)N/N=C/c2ccc(Cl)nc2)N1 | 0% | 0% | 2% | 33% | 0% | 0% | 10% | 23% | 62% | 0% | 72% | Non-Toxic | 42% |  |
|  | > 75 µg/mL |  | O=C1CC[C@@H](C(=O)N/N=C/c2ccccc2)N1 | 20% | 0% | 40% | 12% | 0% | 0% | 7% | 59% | 25% | 15% | 83% | Non-Toxic | 46% | inhibition of growth at 50 µg/mL [13]: < 10% |
| 11.7 µg/mL |  |  | O=C1CCC(NNc2ccc(C(F)(F)F)cc2)N1 (racemic) | 2% | 37% | 51% | 81% | 40% | 39% | 38% | 100% | 35% | 51% | 22% | Non-Toxic | 82% | MIC50 [20]: 2 µg/mL; MIC50 [18]: 3.4 µg/mL |
